The source of these data is patent US12329738B2, “Urolithin A and a composition containing same for external use in inflammations of various etiologies” (WARSZAWSKI UNIWERSYTET MEDYCZNY, priority 2018, dated 2025).

Data set [1] concerns neutrophils and macrophages. Conditions: cited from earlier work.
Data set [2] concerns Wistar rats (DNCB-induced atopic dermatitis). The data set can be described thus: Ear thickness (edema) in DNCB-induced atopic dermatitis rat model. The data set is classed as in vivo. As for the experimental part:
It is similar to the indications for use of hydrocortisone, which was used as a positive control in the study. Urolitin A was obtained by synthesis according to Bialonska et al. (Bialonska et al., 2009) or purchased from Sigma-Aldrich. The ointment containing urolithin A was prepared by emulsifying the weighed substance into a solid vehicle (white petrolatum) using an unguator. Wistar rats aged 5-6 weeks (at the start of the experiment) kept under standard conditions with free access to feed and water were used for the tests. The animals were divided into 5 groups, 8 individuals in each group. To prepare 2,4-dinitrochlorobenzene (DNCB) composition inducing inflammation, DNCB was dissolved in 70% ethanol to a final concentration of 1.5% (w/v). Therapeutic composition was an ointment based on white petrolatum with 0.2% or 1.0% urolithin A added. The control ointment was white petrolatum without addition of urolithin A. The induction of chronic atopic dermatitis involved local 9-fold infiltration with 60 μl 1.5% 2,4-dinitrochlorobenzene (DNCB) on each (external and internal) surface of the right ear over 3 weeks (3 times a week). Negative control was the right ear of rats without induction inflammation. Treatment of atopic dermatitis with 0.2% or 1.0% urolithin composition and white petrolatum (control) or 1.0% hydrocortisone composition (positive control) was started eight days after sensitization—one day before the fourth application of DNCB. Ointments with appropriate for given group drug added were applied in a total volume of about 20 μl to each ear surface one day before and 6 hours after each DNCB application (for a period of 3 weeks). The negative control group consisted of rats without induced inflammation and treated with white petrolatum in a regimen analogous to the composition of urolithin A or hydrocortisone. Ear thickness was assessed using an electronic mini caliper the day before inflammation was induced (day 0) and then on days 4 and 8 prior to treatment and on days 4, 8, 12, 16, […] of therapy with urolithin A composition (on days 12, 16, 20, 24, 28 and 32 after inflammation inducing, respectively). The experimental results obtained were analyzed using the Statistica 7.1 program (StatSoft, Inc., Tulsa, OK, USA) and presented as mean values±SE. Statistical significance was set at P≤0.05. The results with established normal distribution in the D'Agostin and Pearson test were prepared using two- or three-factor analysis of variance (ANOVA). Parametric post-hoc analysis for individual time points was performed using the Bonferroni test.

Data set [3] concerns TNF-alpha. As to the kind of experiment: TNF-alpha production by THP-1 derived macrophages (ELISA). It is filed as cell-based, human. Conditions: 40 μM; LPS stimulation; FIG. 13. Here is the method: Monocytes of the THP-1 line were cultured in RPMI 1640 medium supplemented with 10% FBS and 2 mM glutamine. For transformation of monocytes into macrophages, the cells were treated with 12.5 ng/mL PMA (phorbol 12-myristate 13-acetate) for 48 hours, then washed and incubated for 24 hours in a culture medium without PMA. After this time, urolithin A, urolithin B, iso-urolithin A and the corresponding glucuronides (GUA, GUB and GiUA) were added to the cells at a concentration of 40 μM. After 1 hour of incubation with the compounds, the cells were stimulated with LPS from Escherichia coli (10 ng/mL).
To assess the level of TNF-alpha production, the cells were incubated for 6 hours, to assess the expression of mRNA for TNF-alpha, the cells were incubated for 24 hours, to assess the effect on ERK1/2 phosphorylation, the cells were incubated for 35 minutes.
The level of TNF-alpha in the culture medium was determined using the immunochemical ELISA method (BD biosciences). Evaluation of the expression of mRNA for TNF-alpha was performed using real time PCR. After 24 hours of incubation, RNA was isolated using NucleoSpin RNA Clean-up (Macherey-Nagel). The amount and quality of isolated RNA was determined using 2100 Bioanalyzer (Agilent Technologies). The expression level of mRNA for TNF-α was determined using Brilliant II SYBR Green QPCR Kit and Aria Mx Real-Time PCR thermocycler (Agilent Technologies). The following were used as primers for TNF-alpha: forward: 5′-[…]-3′, reverse: 5′-[…]-3′. Beta-actin (ACTB) was used as the housekeeping gene; primer forward: 5′-[…]-3′, reverse: 5′-[…]-3′).
(§1) The obtained results of experiments on in vitro models were analyzed using the Statistica 13 program (StatSoft, Inc., Tulsa, OK, USA) and presented as mean values±SEM. Statistical significance was set at P≤0.05. The results with established normal distribution in the D'Agostin and Pearson test were prepared using analysis of variance (ANOVA). Parametric post-hoc analysis was performed using Dunnett's test.

In data set [4] the test system is TNF-alpha. As to the kind of experiment: TNF-alpha production by macrophages from human peripheral blood monocytes (ELISA). Conditions: 40 μM; LPS 100 ng/mL, 24 h; FIG. 16. It is filed as cell-based. For orientation: ELISA stands for enzyme-linked immunosorbent assay.
Procedure: Monocytes were isolated from peripheral human blood by a standard method using dextran sedimentation and Ficoll Hypaque gradient centrifugation. After isolation, monocytes were suspended in RPMI 1640 medium supplemented with L-glutamine, HEPES, streptomycin, amphotericin and gentamicin, and 20% autologous serum. Cell culture was carried out under these conditions for 7 days. […] After 24h, TNF-alpha level in the medium was determined using the immunochemical ELISA method (BD biosciences). The obtained results of experiments on in vitro models were analyzed using the Statistica 13 program (StatSoft, Inc., Tulsa, OK, USA) and presented as mean values±SEM. Statistical significance was set at P≤0.05. The results with established normal distribution in the D'Agostin and Pearson test were prepared using analysis of variance (ANOVA). Parametric post-hoc analysis was performed using Dunnett's test.
In another data set the test system is skin cells. Particulars: in vitro; cited from earlier work.
Data set [5] has as its system IL-8, TNF-alpha and IL-1beta. As to the kind of experiment: IL-8, TNF-alpha and IL-1beta production by LPS-stimulated human neutrophils (ELISA). The data set is classed as cell-based. Particulars: 40 μM (FIG. 12: 5, 10 and 40 μM); LPS 100 ng/mL, 24 h; derivatives compared with urolithin A. As for the experimental part:
After isolation, neutrophils were suspended in RPMI 1640 medium supplemented with L-glutamine, HEPES and 10% FBS and incubated with urolithin A and its acylated derivatives (SG1, SG2, SG3, SG4, SG1_m, SG2_m, SG3_m) at a concentration of 40 μM for 1 hour before stimulation with LPS from Escherichia coli (100 ng/mL). After 24 hours, IL-8, TNF-alpha and IL-1beta levels were determined using the immunochemical ELISA method (BD biosciences). The effect on neutrophil viability was assessed using annexin V and propidium iodide staining.
as §1

A further data set deals with human fibroblasts. Conditions: human fibroblasts in vitro; cited from earlier work.

Turning to `O=c1oc2cc(O)ccc2c2ccc(O)cc12` [urolithin A], the “Cytotoxic or antiproliferative activity” value in data set [1] was “there was not observed either cytotoxic or antiproliferative activity”. Also, in data set [2] (0.2% vs 1%, p<0.05), the “Ear edema, comparison of urolithin doses with each other” value is recorded as “more effective at a concentration of 1%”. Also, the “Time profile of anti-edema effect, urolithin A vs. hydrocortisone” value in data set [2] (later treatment period (from day 12 to 28 of treatment), dose 0.2 and 1%, p<0.01) is “more effective in the later treatment period”. The “Ear edema (ear thickness) after local therapy” value in data set [2] (topical ointment in white petrolatum, urolithin A 0.2 and 1.0%, hydrocortisone 1%, urolithin A p<0.001, hydrocortisone p<0.01) is “reduced”. Also, the “Anti-inflammatory (ear edema) effect compared to hydrocortisone 1%” value in data set [2] (urolithin A 0.2% ointment) is “absence of significantly greater efficiency”. The “Anti-inflammatory (ear edema) effect compared to hydrocortisone 1%” value in data set [2] (urolithin A 1% ointment, p<0.05) is on record as “significantly greater anti-inflammatory effect compared to hydrocortisone”. In data set [2] (urolithin A (both doses) vs. 1% hydrocortisone, p<0.05), the “Ear edema reduction, urolithin vs. hydrocortisone (2-factor ANOVA)” value is “stronger”. For the same molecule, in the data set with TNF-alpha [3], the “TNF-alpha production by THP-1 derived macrophages” value is “inhibition of pro-inflammatory cytokine TNF-alpha production”. In the data set on TNF-alpha [4], the “Inhibition of TNF-alpha production by macrophages from human peripheral blood monocytes” value was “most active compound”. The Melanin production entry in the data set on skin cells is “reduced production of melanin”. The “Production of proinflammatory cytokines IL-8, TNF-alpha and IL-1beta by human neutrophils” value in data set [5] was “inhibition of the production of proinflammatory cytokines”. In addition, in the data set with human fibroblasts, the Collagen synthesis entry is given as “stimulated collagen synthesis”, the “Inhibition of fibroblast aging” value is reported as “no inhibition of fibroblast aging was found” and the “mRNA expression for matrix metalloproteinase-1” value is listed as “inhibited the mRNA expression”.
